Data as given in patent US6623740B1, “Structurally modified peptides that are resistant to peptidase degradation” (Ludwig Institute for Cancer Research, priority 1997, dated 2003).

Procedure: At different times, an aliquot measuring about 150 μl was removed and the enzymatic reaction stopped by addition of 15 μl trifluoroacetic acid (TFA). Precipitated serum proteins were pelleted by centrifugation at 15000 rpm for 10 min at 4° C. The supernatants were frozen and preserved at −20° C. until analysis.
The peptide and its degradation product(s) were then separated by reverse phase chromatography (RP-HPLC). Peaks corresponding to the different products were quantified. HPLC analysis of the various peptide samples collected at different incubation times was conducted. As well, peptide degradation kinetics including the half-life of the various peptide samples was recorded together with any increase in the degradation products of the peptide samples under investigation.
The following HPLC conditions were used:
i) column: 5-μm 4.6 mm×25 cm, C18 (Beckman),
ii) gradient: 4-20% CH3CN (0.08% TFA in H2O, 0.08% TFA in CH3CN), 0-30 min,
iii) UV detection: 200-300 nm using a Waters 996 photodiode array detector,
iv) chromatograms obtained at 225 and 280 nm were also derived.

- t ½ of degradation by peptidase present in human serum: ½
Compound: C[C@H](NC(=O)[C@@H](N)CCC(=O)O)C(=O)N[C@@H](CC(=O)O)C(=O)N1CCC[C@H]1C(=O)N[C@H](C(=O)NCC(=O)N[C@@H](Cc1c[nH]cn1)C(=O)N[C@@H](CO)C(=O)N[C@@H](Cc1ccc(O)cc1)C(=O)O)[C@@H](C)O [MZ2-E]
